≈ marks a conversion by molar mass, not a printed value.
System: Mycobacterium tuberculosis
Assay: Antimycobacterial activity against Mycobacterium tuberculosis H37Rv after 6 days by colorimetric microassay
Assay type: functional
Conditions: 144 h

CC[C@@H](CO)NCCN[C@@H](CC)CO [ETHAMBUTOL]
MIC: 2 µg/mL (≈ 9.79 µM)
